Results from ChEMBL document CHEMBL1132888, “4,10-Dihydro-4-oxo-4H-imidazo[1,2-a]indeno[1,2-e]pyrazin-2-carboxylic acid derivatives: highly potent and selective AMPA receptors antagonists with in vivo activity” (Bioorg Med Chem Lett, 2000).
The source made the active and inactive calls. The rule behind the calls is not given here.

Experiments:
Mus musculus [1] = assay: Compound tested for sound induced convulsions in DBA/2 mice following ip administration; Compound was active; assay type: functional, organism-based
[2] = target: Glutamate receptor ionotropic, AMPA (Rattus norvegicus, UniProt P19490+P19491+P19492+P19493)
Description: Displacement of [3H]AMPA from Ionotropic glutamate receptor AMPA of rat cortical membranes

Glutamate NMDA receptor = assay: Displacement of [3H]DCKA from N-methyl-D-aspartate glutamate receptor of rat cortical membrane
Mus musculus [3] = assay: Effective dose of the intraperitoneally administered compound required to protect 50% of mice from tonic convulsion caused by maximal electric shock (MES); assay type: functional; conditions: ip
[4] = target: Glutamate receptor ionotropic, kainate (Rattus norvegicus) (UniProt P22756+Q01812+P42260+P42264+Q63273); assay: Inhibitory activity against generation of currents by 50 uM kainate in Xenopus oocytes injected with rat brain mRNA; assay type: functional, cell-based; conditions: Oocyte
Mus musculus [5] = assay: Effective dose of the intraperitoneally administered compound required to protect 50% of DBA/2 mice from tonico-clonic convulsion; assay type: functional; conditions: ip
[6] = target: Glutamate receptor ionotropic, kainate; conditions: oocyte

IC50 [2] [nM]	IC50 (Glutamate NMDA receptor) [µM]	Kb [4] [nM]	IC50 [6] [nM]	Structure (SMILES)	Activity (Mus musculus [1])	ED50 (Mus musculus [3]) [mg/kg]	ED50 (Mus musculus [5]) [mg/kg]
9	4.33	3.92	–	CNC(=O)Nc1ccc2c(c1)Cc1c-2nc(O)c2nc(C(=O)O)cn12	Active	0.7	0.5
55	–	–	–	CCOC(=O)c1cn2c3c(nc(O)c2n1)-c1ccc(F)cc1C3	–	> 80	–
–	–	–	230	O=C(O)[C@@H]1C[C@H]2C[C@@H](CCc3nn[nH]n3)CC[C@H]2CN1 [TEZAMPANEL ANHYDROUS]	–	4	–
476	0.73	–	1250	NC(=O)c1cn2c3c(nc(O)c2n1)-c1ccccc1C3	–	> 80	–
473	6.9	–	236	Nc1ccc2c(c1)Cc1c-2nc(O)c2nc(C(=O)O)cn12	–	80	–
–	> 10	–	–	NS(=O)(=O)c1cccc2c1c([N+](=O)[O-])cc1nc(O)c(O)nc12 [NBQX]	–	36	13
–	–	–	1800	Oc1nc2c(n3ccnc13)Cc1ccccc1-2	–	62	–
210	0.198	–	350	CCOC(=O)c1cn2c3c(nc(O)c2n1)-c1ccccc1C3	–	> 80	> 80
–	–	–	890	CN1CCCC12c1ccccc1-c1nc(O)c3nccn3c12 (racemic)	–	17	–
150	–	–	30	O=C(O)c1cn2c3c(nc(O)c2n1)-c1ccccc1C3	–	50	20
60	0.455	–	25	O=C(O)c1cn2c3c(nc(O)c2n1)-c1ccc(F)cc1C3	–	56	–
–	–	–	260	O=c1[nH]c2cc(-n3ccnc3)c([N+](=O)[O-])cc2[nH]c1=O [YM-90K]	–	12	15
–	10	–	2	CNC(=O)Nc1ccc2c(c1)C(CC(=O)O)c1c-2nc(O)c2nccn12 (racemic)	–	1	0.9
9	10	–	6	CCOC(=O)c1cn2c3c(nc(O)c2n1)-c1ccc(NC(=O)NC)cc1C3	–	> 80	> 20
